Results taken from patent US10688088B2 (priority 2015, dated 2020).

System: M. tuberculosis H37 Rv (ATCC 27294)
Assay: MIC determination in medium 7H9 by Alamar Blue (MABA) method and FIC synergism, standard strain H37Rv
Assay type: cell-based, Mycobacterium tuberculosis

CC(=O)NC[C@H]1CN(c2ccc(N3CCOCC3)c(F)c2)C(=O)O1 [LYN, linezolid]
MIC 1: MIC of the substance tested alone: 0.62 | MIC 2: MIC of the substance tested in combination (combination MFL + LYN): 0.62

COc1c(N2C[C@@H]3CCCN[C@@H]3C2)c(F)cc2c(=O)c(C(=O)O)cn(C3CC3)c12 [MOX, moxifloxacin]
MIC 1: MIC of the substance tested alone: 0.25 | MIC 2: MIC of the substance tested in combination (combination MFL + MOX): 0.15

C[C@H]1COc2c(N3CCN(C)CC3)c(F)cc3c(=O)c(C(=O)O)cn1c23 [LVX, levofloxacin]
MIC 1: MIC of the substance tested alone: 0.62 | MIC 2: MIC of the substance tested in combination (combination MEF + LVX): 0.62

NNC(=O)c1ccncc1 [INH, isoniazid]
MIC 1: MIC of the substance tested alone: 0.20 | MIC 2: MIC of the substance tested in combination (combination MFL + INH): 0.10

C[C@@H]1CN(c2c(F)c(N)c3c(=O)c(C(=O)O)cn(C4CC4)c3c2F)C[C@H](C)N1 [SPR, sparfloxacin]
MIC 1: MIC of the substance tested alone: 0.12 | MIC 2: MIC of the substance tested in combination (combination MFL + SPR): 0.12

CC[C@@H](CO)NCCN[C@@H](CC)CO [ETB, ethambutol]
MIC 1: MIC of the substance tested alone: 1.25 | MIC 2: MIC of the substance tested in combination (combination MFL + ETB): 1.25

O=C(O)c1cn(C2CC2)c2cc(N3CCNCC3)c(F)cc2c1=O [CPX, ciprofloxacin]
MIC 1: MIC of the substance tested alone: 0.62 | MIC 2: MIC of the substance tested in combination (combination MEF + CPX): 0.62

NC(=O)c1cnccn1 [PYR, pyrazinamide]
MIC 1: MIC of the substance tested alone: 100 | MIC 2: MIC of the substance tested in combination (combination MFL + PYR): 3.12

CC1COc2c(N3CCN(C)CC3)c(F)cc3c(=O)c(C(=O)O)cn1c23 (centres unmarked) [OFX, ofloxacin]
MIC 1: MIC of the substance tested alone: 1.25 | MIC 2: MIC of the substance tested in combination (combination MFL + OFX): 0.62

COc1c(N2CCNC(C)C2)c(F)cc2c(=O)c(C(=O)O)cn(C3CC3)c12 (centres unmarked) [GAT, gatifloxacin]
MIC 1: MIC of the substance tested alone: 0.12 | MIC 2: MIC of the substance tested in combination (combination MFL + GAT): 0.12

OC(c1cc(C(F)(F)F)nc2c(C(F)(F)F)cccc12)C1CCCCN1 (centres unmarked) [Mefloquine, mefloquine]
MIC 2: MIC of the substance tested in combination (combination MEF + CPX): 0.62 | MIC 2: MIC of the substance tested in combination (combination MEF + LVX): 0.62 | MIC 2: MIC of the substance tested in combination (combination MFL + GAT): 0.12 | MIC 2: MIC of the substance tested in combination (combination MFL + INH): 0.10 | MIC 2: MIC of the substance tested in combination (combination MFL + LYN): 0.62 | MIC 2: MIC of the substance tested in combination (combination MFL + MOX): 0.15 | MIC 2: MIC of the substance tested in combination (combination MFL + OFX): 0.62 | MIC 2: MIC of the substance tested in combination (combination MFL + PYR): 3.12 | MIC 2: MIC of the substance tested in combination (combination MFL + SPR): 0.12
